Measurements as given in patent US20140348865A1, “[…] ON AN HIV-1 V1V2 SITE-OF-VULNERABILITY” (The United States of America, as represented by the …, priority 2011, published 2014).

How the values were obtained:
PG9 = experiment: ELISA of recombinant gp120 monomers with PG9; format: binding, human; details: gp120 monomer of the named strain
Fab PG9 = experiment: Saturation transfer difference NMR of glycan binding to PG9; design: species or system human; details: for interaction with PG9 by STD NMR: 1.5 mM glycan, 15 μM Fab PG9
Description: FIGS. 6A-6B illustrate two glycans and a strand comprise a V1V2 site-of-vulnerability. Glycan, electrostatic, and sequence-independent interactions allow PG9 to recognize a glycopeptide site on V1V2. A, Site characteristics in CAP45 strain of HIV-1. Glycans 160 and 156 (173 with ZM109) are highlighted in light grey, and strands B and C are highlighted in dark grey, with the rest of V1V2 in semi-transparent white. The interactive surface of V1V2 with PG9 is shown, colored according the local electrostatic potential as in FIG. 5B. The contribution of each structural element to that surface is provided as a percentage of the total. […] C, Langmuir binding curve used to obtain the KD a function of glycan concentration (A signals correspond to N-acetyl protons, which are shown in the boxed area of the upper panel). D, Stacked STD NMR spectra as a function of Man5GlcNAc2-Asn concentration.
FIG. 25 illustrates binding of GlcNAc2 to PG9 by NMR. STD (lower trace) and reference (upper trace) NMR spectra of 1.5 mM GlcNAc2 in the presence of 15 μM Fab PG9.
FIG. 26 illustrates binding of mannopentaose to PG9 by NMR. STD (lower trace) and reference (upper trace) NMR spectra of 1.5 mM mannopentaose (structure shown above) in the presence of 15 μM Fab PG9.
All NMR experiments were carried out at 298 K on Bruker avance 600 or avance 500 instruments equipped with a triple resonance cryo-probe incorporating gradients in z-axis. 1D STD spectra were acquired by selectively irradiating at −1 ppm and +40 ppm as on- and off-resonance frequencies, respectively, using a train of 50 ms Gaussian-shaped radio frequency pulses separated by 1 ms delays and an optimized power level of 57 db. During NMR experiments water suppression was achieved by binomial 3-9-19 pulse sequence and protein resonances were suppressed by applying 10 ms T1ρ filter. Samples were prepared in 20 mM sodium phosphate buffer containing 50 mM sodium chloride at pH 6.8. The NMR data were processed and analyzed by using TOPSPIN 2.1. […]

Compound	PG9 recognition in the gp120 monomer context (PG9)	other results
16055: gp120 monomer of HIV-1 Clade C strain 16055, SEQ ID NO: 6 [compound 16055]	retained PG9 recognition	–
CC(=O)N[C@H]1[C@H](O[C@H]2[C@H](O)[C@@H](NC(C)=O)C(O)O[C@@H]2CO)O[C@H](CO)[C@@H](O)[C@@H]1O (some centres unmarked) [(N-acetylglucosamine)2]	–	interaction with PG9 by STD NMR (Fab PG9): not observed
CC(=O)N[C@@H]1[C@@H](O)[C@H](O[C@@H]2O[C@H](CO)[C@@H](O[C@@H]3O[C@H](CO[C@H]4O[C@H](CO[C@H]5O[C@H](CO)[C@@H](O)[C@H](O)[C@@H]5O)[C@@H](O)[C@H](O[C@H]5O[C@H](CO)[C@@H](O)[C@H](O)[C@@H]5O)[C@@H]4O)[C@@H](O)[C@H](O[C@H]4O[C@H](CO)[C@@H](O)[C@H](O)[C@@H]4O)[C@@H]3O)[C@H](O)[C@H]2NC(C)=O)[C@@H](CO)O[C@H]1NC(=O)C[C@H](N)C(=O)O [Asn-(N-actylglucosamine)2(mannose)5]	–	Kd (Fab PG9; titration series, Langmuir binding curve, read-out: affinity for PG9): 1600 ± 900 µM
CC(=O)N[C@H]1[C@H](O[C@H]2[C@H](O)[C@@H](NC(C)=O)C(O)O[C@@H]2CO)O[C@H](CO)[C@@H](O[C@@H]2O[C@H](CO[C@H]3O[C@H](CO[C@H]4O[C@H](CO)[C@@H](O)[C@H](O)[C@@H]4O)[C@@H](O)[C@H](O[C@H]4O[C@H](CO)[C@@H](O)[C@H](O)[C@@H]4O)[C@@H]3O)[C@@H](O)[C@H](O[C@H]3O[C@H](CO)[C@@H](O)[C@H](O)[C@@H]3O)[C@@H]2O)[C@@H]1O (some centres unmarked) [oligomannose-5]	–	interaction with PG9 by STD NMR (Fab PG9): weak interactions
CAP45: gp120 monomer of HIV-1 Clade C strain CAP45, SEQ ID NO: 3	retained PG9 recognition	–
TRJO: gp120 monomer of HIV-1 Clade B strain TRJO, SEQ ID NO: 7	retained PG9 recognition	–
ZM53: gp120 monomer of HIV-1 Clade C strain ZM53, SEQ ID NO: 4	retained PG9 recognition	–
ZM109: gp120 monomer of HIV-1 Clade C strain ZM109, SEQ ID NO: 2	retained PG9 recognition	–
